Data as given in the supplement of paper PMC10627819.

How the values were obtained:
Assay in all cases: fitness (endpoint OD595 vs no drug) (fraction); higher = more growth
B. subtilis 168 = test system: B. subtilis 168
In short: (§1)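 With the first reading as background, OD595 was measured every 30 min for 14 h in 384-well plates kept at 37 °C and inoculated at OD595 0.01. TSB, LB Lennox or CY was the medium. Fitness is the optical density at the transition into stationary phase divided by the robust mean of no-drug control wells, with a cap of 1.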

S. aureus Newman = test system: S. aureus Newman
In short: as §1

S. pneumoniae D39V = test system: S. pneumoniae D39V
In short: as §1
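Further: OD595 on entry to stationary phase over no-drug wells; at most 1.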

C[C@@H]1O[C@@H]1P(=O)(O)O [Fosfomycin] + CC1=C(C(=O)O)N2C(=O)[C@@H](NC(=O)[C@H](N)c3ccccc3)[C@H]2SC1 [Cephalexin]
Conditions | fitness
B. subtilis 168, first compound 1.562 µg/mL, partner 0.125 µg/mL | 0.66
B. subtilis 168, first compound 1.562 µg/mL, partner 0.25 µg/mL | 0.776
B. subtilis 168, first compound 1.562 µg/mL, partner 0.5 µg/mL | 0.774
B. subtilis 168, first compound 3.124 µg/mL, partner 0.125 µg/mL | 0.573
B. subtilis 168, first compound 3.124 µg/mL, partner 0.25 µg/mL | 0.656
B. subtilis 168, first compound 3.124 µg/mL, partner 0.5 µg/mL | 0.611
B. subtilis 168, first compound 6.248 µg/mL, partner 0.125 µg/mL | 0.404
B. subtilis 168, first compound 6.248 µg/mL, partner 0.25 µg/mL | 0.396
B. subtilis 168, first compound 6.248 µg/mL, partner 0.5 µg/mL | 0.373
S. aureus Newman, first compound 0.781 µg/mL, partner 0.25 µg/mL | 0.677
S. aureus Newman, first compound 0.781 µg/mL, partner 0.5 µg/mL | 0.662
S. aureus Newman, first compound 0.781 µg/mL, partner 1 µg/mL | 0.685
S. aureus Newman, first compound 1.562 µg/mL, partner 0.25 µg/mL | 0.604
S. aureus Newman, first compound 1.562 µg/mL, partner 0.5 µg/mL | 0.561
S. aureus Newman, first compound 1.562 µg/mL, partner 1 µg/mL | 0.616
S. aureus Newman, first compound 3.124 µg/mL, partner 0.25 µg/mL | 0.309
S. aureus Newman, first compound 3.124 µg/mL, partner 0.5 µg/mL | 0.286
S. aureus Newman, first compound 3.124 µg/mL, partner 1 µg/mL | 0.284
S. pneumoniae D39V, first compound 1.25 µg/mL, partner 1 µg/mL | 0.768
S. pneumoniae D39V, first compound 1.25 µg/mL, partner 2 µg/mL | 0.212
S. pneumoniae D39V, first compound 1.25 µg/mL, partner 4 µg/mL | 0.0339
S. pneumoniae D39V, first compound 2.5 µg/mL, partner 2 µg/mL | 0.191
S. pneumoniae D39V, first compound 2.5 µg/mL, partner 4 µg/mL | 0.0402
S. pneumoniae D39V, first compound 5 µg/mL, partner 2 µg/mL | 0.0752
S. pneumoniae D39V, first compound 5 µg/mL, partner 4 µg/mL | 0.0499

fitness, one replicate
Conditions | first compound 1.25 µg/mL | first compound 1.562 µg/mL | first compound 2.5 µg/mL | first compound 3.124 µg/mL | first compound 5 µg/mL | first compound 6.248 µg/mL
B. subtilis 168, partner 1 µg/mL | – | 0.797 | – | 0.673 | – | 0.542
S. pneumoniae D39V, partner 0.125 µg/mL | 0.937 | – | 0.879 | – | 0.713 | –
S. pneumoniae D39V, partner 0.25 µg/mL | 0.933 | – | 0.847 | – | 0.762 | –
S. pneumoniae D39V, partner 0.5 µg/mL | 0.899 | – | 0.847 | – | 0.751 | –

O=C(O)c1cn(C2CC2)c2cc(N3CCNCC3)c(F)cc2c1=O [Ciprofloxacin] + CC1=C(C(=O)O)N2C(=O)[C@@H](NC(=O)[C@H](N)c3ccccc3)[C@H]2SC1 [Cephalexin]
Conditions | fitness
B. subtilis 168, first compound 0.0098 µg/mL, partner 0.125 µg/mL | 0.886
B. subtilis 168, first compound 0.0098 µg/mL, partner 0.25 µg/mL | 0.88
B. subtilis 168, first compound 0.0098 µg/mL, partner 0.5 µg/mL | 0.829
B. subtilis 168, first compound 0.0195 µg/mL, partner 0.125 µg/mL | 0.69
B. subtilis 168, first compound 0.0195 µg/mL, partner 0.25 µg/mL | 0.68
B. subtilis 168, first compound 0.0195 µg/mL, partner 0.5 µg/mL | 0.705
B. subtilis 168, first compound 0.039 µg/mL, partner 0.125 µg/mL | 0.0501
B. subtilis 168, first compound 0.039 µg/mL, partner 0.25 µg/mL | 0.0506
B. subtilis 168, first compound 0.039 µg/mL, partner 0.5 µg/mL | 0.062
S. aureus Newman, first compound 0.0375 µg/mL, partner 0.25 µg/mL | 0.732
S. aureus Newman, first compound 0.0375 µg/mL, partner 0.5 µg/mL | 0.77
S. aureus Newman, first compound 0.0375 µg/mL, partner 1 µg/mL | 0.753
S. aureus Newman, first compound 0.075 µg/mL, partner 0.25 µg/mL | 0.727
S. aureus Newman, first compound 0.075 µg/mL, partner 0.5 µg/mL | 0.725
S. aureus Newman, first compound 0.075 µg/mL, partner 1 µg/mL | 0.733
S. pneumoniae D39V, first compound 0.125 µg/mL, partner 2 µg/mL | 0.0158
S. pneumoniae D39V, first compound 0.125 µg/mL, partner 4 µg/mL | 0.0138
S. pneumoniae D39V, first compound 0.5 µg/mL, partner 2 µg/mL | 0.0332
S. pneumoniae D39V, first compound 0.5 µg/mL, partner 4 µg/mL | 0.0303

one replicate
Conditions | fitness
B. subtilis 168, first compound 0.0098 µg/mL, partner 1 µg/mL | 0.951
B. subtilis 168, first compound 0.0195 µg/mL, partner 1 µg/mL | 0.75
B. subtilis 168, first compound 0.039 µg/mL, partner 1 µg/mL | 0.183
S. pneumoniae D39V, first compound 0.125 µg/mL, partner 0.125 µg/mL | ≥ 1
S. pneumoniae D39V, first compound 0.125 µg/mL, partner 0.25 µg/mL | 0.996
S. pneumoniae D39V, first compound 0.125 µg/mL, partner 0.5 µg/mL | 0.942
S. pneumoniae D39V, first compound 0.25 µg/mL, partner 0.125 µg/mL | 0.82
S. pneumoniae D39V, first compound 0.25 µg/mL, partner 0.25 µg/mL | 0.849
S. pneumoniae D39V, first compound 0.25 µg/mL, partner 0.5 µg/mL | 0.886
S. pneumoniae D39V, first compound 0.25 µg/mL, partner 1 µg/mL | 0.686
S. pneumoniae D39V, first compound 0.25 µg/mL, partner 2 µg/mL | 0
S. pneumoniae D39V, first compound 0.25 µg/mL, partner 4 µg/mL | 0
S. pneumoniae D39V, first compound 0.5 µg/mL, partner 0.125 µg/mL | 0.473
S. pneumoniae D39V, first compound 0.5 µg/mL, partner 0.25 µg/mL | 0.552
S. pneumoniae D39V, first compound 0.5 µg/mL, partner 0.5 µg/mL | 0.583

O=C(O)c1cn(C2CC2)c2cc(N3CCNCC3)c(F)cc2c1=O [Ciprofloxacin] + CO/N=C(\C(=O)N[C@@H]1C(=O)N2C(C(=O)[O-])=C(C[N+]3(C)CCCC3)CS[C@H]12)c1csc(N)n1 [Cefepime]
Conditions | fitness
S. aureus Newman, first compound 0.0375 µg/mL, partner 0.125 µg/mL | 0.764
S. aureus Newman, first compound 0.0375 µg/mL, partner 0.25 µg/mL | 0.684
S. aureus Newman, first compound 0.0375 µg/mL, partner 0.5 µg/mL | 0.642
S. aureus Newman, first compound 0.075 µg/mL, partner 0.125 µg/mL | 0.686
S. aureus Newman, first compound 0.075 µg/mL, partner 0.25 µg/mL | 0.667
S. aureus Newman, first compound 0.075 µg/mL, partner 0.5 µg/mL | 0.604
S. pneumoniae D39V, first compound 0.125 µg/mL, partner 0.007 µg/mL | 0.991
S. pneumoniae D39V, first compound 0.125 µg/mL, partner 0.0078 µg/mL | ≥ 1
S. pneumoniae D39V, first compound 0.125 µg/mL, partner 0.014 µg/mL | ≥ 1
S. pneumoniae D39V, first compound 0.125 µg/mL, partner 0.0155 µg/mL | 0.935
S. pneumoniae D39V, first compound 0.125 µg/mL, partner 0.028 µg/mL | 0.917
S. pneumoniae D39V, first compound 0.25 µg/mL, partner 0.007 µg/mL | 0.942
S. pneumoniae D39V, first compound 0.25 µg/mL, partner 0.014 µg/mL | 0.972
S. pneumoniae D39V, first compound 0.25 µg/mL, partner 0.028 µg/mL | 0.841
S. pneumoniae D39V, first compound 0.5 µg/mL, partner 0.007 µg/mL | 0.877
S. pneumoniae D39V, first compound 0.5 µg/mL, partner 0.0078 µg/mL | 0.811
S. pneumoniae D39V, first compound 0.5 µg/mL, partner 0.014 µg/mL | 0.903
S. pneumoniae D39V, first compound 0.5 µg/mL, partner 0.0155 µg/mL | 0.734
S. pneumoniae D39V, first compound 0.5 µg/mL, partner 0.028 µg/mL | 0.779
S. pneumoniae D39V, first compound 0.5 µg/mL, partner 0.031 µg/mL | 0.289

S. pneumoniae D39V, first compound 0.25 µg/mL, one replicate
Conditions | fitness
partner 0.0078 µg/mL | 0.929
partner 0.0155 µg/mL | 0.959
partner 0.031 µg/mL | 0.741

CO/N=C(\C(=O)N[C@@H]1C(=O)N2C(C(=O)O)=C(COC(N)=O)CS[C@H]12)c1ccco1 [Cefuroxime] + N[C@@H]1CONC1=O [Cycloserine D]
fitness, B. subtilis 168
Conditions | partner 0.125 µg/mL | partner 0.25 µg/mL | partner 0.5 µg/mL
first compound 0.0975 µg/mL | 0.677 | 0.63 | 0.648
first compound 0.195 µg/mL | 0.396 | 0.41 | 0.372

fitness, one replicate
Conditions | first compound 0.04875 µg/mL | first compound 0.0975 µg/mL | first compound 0.195 µg/mL | first compound 0.39 µg/mL | first compound 0.78 µg/mL | first compound 1.562 µg/mL | first compound 3.125 µg/mL | first compound 6.25 µg/mL
B. subtilis 168, partner 0.125 µg/mL | – | – | – | 0.337 | 0.303 | 0.361 | 0.287 | 0.201
B. subtilis 168, partner 0.25 µg/mL | – | – | – | 0.404 | 0.319 | 0.305 | 0.22 | 0.173
B. subtilis 168, partner 0.5 µg/mL | – | – | – | 0.306 | 0.284 | 0.228 | 0.204 | 0.111
S. aureus Newman, partner 0.375 µg/mL | 0.926 | 0.887 | 0.935 | – | – | – | – | –
S. aureus Newman, partner 0.75 µg/mL | 0.965 | 0.822 | 0.908 | – | – | – | – | –
S. aureus Newman, partner 1.5 µg/mL | 0.871 | 0.861 | 0.976 | – | – | – | – | –
